≈ marks a conversion by molar mass, not a printed value. Like-named read-outs stand apart in the source and are kept apart here.
How the values were obtained:
[1] = target: T1, Sa-ClpP (Staphylococcus aureus, UniProt Q2G036); assay: ADEP displacement fluorescence polarization assay; assay type: binding, S. aureus
T1 construct: made in house; host or cells: E. coli BL21 (DE3)
Procedure: A fluorescence polarization (FP) assay was used to determine the activity of the disclosed compounds in displacing an ADEP analogue from ClpP. Briefly, the assay was performed in black 384 well, flat bottom, low volume plates (Greiner Bio-One, Monroe, N.C., catalog #784076). 20 μL of a pre-equilibrated (1 hr, room temperature) master mix (1 μM Sa-ClpP, 2% DMSO (v/v) and 50 nM FP probe in Tris*HCl, pH 8.0)) was pipetted into each well using a Well-Mate (Thermo Scientific, Waltham, Mass.). Sa-ClpP was prepared as described above for the ClpP activation assay. The FP probe was ADEP 2591 (structure shown above). The ADEP 2591 comprises a TAMRA fluorophore linked to a core based on modified ADEP 2378 via a short alkyl linker. Using pin transfer, approximately 0.4 μL (2% v/v DMSO) of each compound or control was added per well. After addition of compounds and controls, plates were allowed to incubate for an additional 120 minutes at room temperature. All assays were performed in triplicate. Polarization was monitored using an EnVision Multilabel reader (Perkin-Elmer, Waltham, Mass.) by exciting the FP probe at 530±25 nm, and monitoring fluorescence intensity of both parallel and perpendicular polarized light at 579±25 nm. Readout was in millipolarization units (mP).
Signal gain and G factors were determined in wells containing 20 μM ADEP 2378, which had been previously verified (data not shown) as containing completely unbound ADEP 2591. Data collected was normalized to values obtained from positive (20 μM ADEP 2378) or negative (DMSO) controls. Curves were fit with non-linear regression using the equation “log [inhibitor]vs. Response-variable slope (four parameters)-symmetrical” in the program Prism 6 (GraphPad Software, La Jolla, Calif. USA, www.graphpad.com). The structures for ADEP 2378 and ADEP 2591 are shown above. ADEP 2378 is (E)-N-((S)-1-(((2R,6S,8aS,14aS,20S,23aS)-2,6-dimethyl-5,8,14,19,23-pentaoxooctadecahydro-1H,5H,14H,19H-pyrido[2,1-i]dipyrrolo[2,1-c:2′,1′-1][1]oxa[4,7,10,13]tetraazacyclohexadecin-20-yl)amino)-1-oxo-3-phenylpropan-2-yl)pent-2-enamide. ADEP 2591 is 5-(3-(3-((6S,9S,11aS,17S,20aS)-6,10-dimethyl-5,8,11,16,20-pentaoxo-17-((S)-2-((E)-pent-2-enamido)-3-phenylpropanamido)hexadecahydro-1H,5H,16H-dipyrrolo[2,1-c:2′,1′-1][1]oxa[4,7,10,13]tetraazacyclohexadecin-9-yl)propyl)thioureido)-2-(6-(dimethylamino)-3-(dimethyliminio)-3H-xanthen-9-yl)benzoate.

[2] = Cytotoxicity assay, CellTiter-Glo cell viability; assay type: cell-based; settings: African green monkey
Procedure: Cytotoxicity was determined by determining the effect of compounds on cell viability. Vero (kidney epithelial cells; ATCC CCL-81) monolayers were trypsinized and 5000 cells/well were seeded (10-15% confluency) into white-wall, flat bottom 96 well microwell plates (Corning) using enriched Dulbecco's Modified Eagle's Medium (Hyclone: DMEM/High Glucose) containing 10% Fetal Bovine Serum (ATCC-30-2020). Plates were incubated overnight at 37° C. in the presence of 5% CO2. Drug-free media was then replaced with media containing serial dilutions of test compound or DMSO carrier. After an additional 72 hours of incubation, viability was indirectly measured using the CellTiter-Glo® Luminescent Cell Viability (Promega) assay. Assay plates were read at peak emission wavelength of 560 nm using a EnVision® Multilabel Plate Reader (Perkin Elmer) or PHERAstar FS Multilabel reader (BMG, Cary, N.C.). […] USA, www.graphpad.com]. For each experiment, compounds were tested in duplicate. IC50 values presented are the range of two biologically independent experiments.

[3] = tested on: S. aureus USA 300 ΔClpP; assay: Minimal inhibitory concentration, microbroth dilution; assay type: cell-based, Staphylococcus aureus; settings: ClpP inactivated strain
Procedure: (§1) Minimal inhibitory concentrations (“MICs”) were determined using the microbroth dilution method according to Clinical Laboratory Standards Institute (CLSI; National, C.F. C. L. S., Methods for Dilution Antimicrobial Susceptibility Tests for Bacteria Grow aerobically-Seventh Edition: Approved Standard M7-A7, CLSI, Wayne, Pa., USA, 2008) and were read by visual inspection. Two fold serial dilutions of test compound in 100 μL of the appropriate broth media were first prepared in 96-well round bottom microtiter plates (Nalgene Nunc International, Rochester, N.Y., USA). An equivalent volume (100 μL) of bacterial broth inocula containing approximately 10^5 bacterial cfu/mL was added to each well to give final concentrations of test compound starting at 200 μM. The plates were then incubated aerobically at 37° C. All strains were incubated overnight. After incubations, in all cases the MIC was recorded as the lowest concentration of drug that prevented bacterial growth. The bacterial strains for which MIC was determined as described in Table 4.

[4] = tested on: S. pneumoniae R6; assay: as above; assay type: cell-based
Procedure: (§2) Minimal inhibitory concentrations (“MICs”) were determined using the microbroth dilution method according to Clinical Laboratory Standards Institute (CLSI; National, C.F. C. L. S., Methods for Dilution Antimicrobial Susceptibility Tests for Bacteria Grow aerobically-Seventh Edition: Approved Standard M7-A7, CLSI, Wayne, Pa., USA, 2008) and were read by visual inspection. Two fold serial dilutions of test compound in 100 μL of the appropriate broth media were first prepared in 96-well round bottom microtiter plates (Nalgene Nunc International, Rochester, N.Y., USA). […] The plates were then incubated aerobically at 37° C. All strains were incubated overnight. After incubations, in all cases the MIC was recorded as the lowest concentration of drug that prevented bacterial growth. The bacterial strains for which MIC was determined as described in Table 4.

[5] = target: T1, Sa-ClpP; assay: ClpP activation, EnzCheck Protease Assay with Bodipy-FL casein (second described method); assay type: biochemical, S. aureus
Procedure: Alternatively, the assay was carried out using EnzCheck Protease Assay (Molecular Probes, Catalog #E6638). The assay was performed in black 384 well, flat bottom, low volume plates (Greiner Bio-One, Monroe, N.C., catalog #784076). 10 μL of Tris.HCl buffer, pH 8.0 with 0.01% Triton X-100 was pipetted into each well using a Well-Mate (Thermo Scientific, Waltham, Mass.). 0.4 μL test compounds or controls (2% DMSO v/v) were added to each well using a Biomek FX liquid handling robot (Beckman Coulter, Indianapolis Ind.). After addition of test compounds and controls, 10 μL of master mix containing 2 μM Sa-ClpP and 2 μM substrate (Bodipy-FL labeled casein) in Tris*HCl buffer, pH 8.0 with 0.01% (v/v) Triton X-100, was pipetted into each well. All assays were performed in triplicate, under linear velocity conditions. Increase in fluorescent signal following activation of Sa-ClpP by test compounds and controls was measured over time period of 30 mins using filters with excitation at 485±15 nm and emission at 520±25 nm on a PHERAstar FS Multilabel reader (BMG, Cary, N.C.). […] Data analysis was done by measuring rate of casein degradation over time (slopes). Computed degradation rates (slopes) were normalized to positive (ADEP4) or negative (DMSO) controls. Using nonlinear regression curve fitting EC50 values and % activation were determined using the equation “log [agonist]vs. Response-variable slope (four parameters)-symmetrical” in the program Prism 6 (GraphPad Software, La Jolla, Calif. USA, www.graphpad.com).

[6] = tested on: S. aureus ATCC 29213; assay: Minimal inhibitory concentration, microbroth dilution; assay type: cell-based; settings: Staphylococcus aureus, ATCC29213, read-out: Minimal Inhibitory Concentration S. aureus ATCC 29213
Procedure: as §1

[7] = tested on: S. pyogenes ATCC 700294; assay: as above; assay type: cell-based; settings: Streptococcus pyogenes, ATCC700294, read-out: Minimal Inhibitory Concentration S. pyogenes ATCC 700294
Procedure: as §2

[8] = tested on: B. subtilis ATCC 23857; assay: as above; assay type: cell-based; settings: Bacillus subtilis, ATCC23857, read-out: Minimal Inhibitory Concentration B. subtilis ATCC 23857
Procedure: as §1

[9] = Streptococcus pneumoniae, R6; read-out: Minimal Inhibitory Concentration S. pneumoniae R6
[10] = Vero kidney epithelial cells (ATCC CCL-81), Vero cells, 72 hours, read-out: Cytotoxicity IC50
[11] = 1 μM Sa-ClpP, 50 nM FP probe ADEP 2591, read-out: ADEP Displacement IC50
[12] = Streptococcus pneumoniae, R6, read-out: Minimal Inhibitory Concentration S. pneumoniae R6
[13] = read-out: ClpP Activation EC50 (converted)

T1 sequence (Q2G036 whole entry): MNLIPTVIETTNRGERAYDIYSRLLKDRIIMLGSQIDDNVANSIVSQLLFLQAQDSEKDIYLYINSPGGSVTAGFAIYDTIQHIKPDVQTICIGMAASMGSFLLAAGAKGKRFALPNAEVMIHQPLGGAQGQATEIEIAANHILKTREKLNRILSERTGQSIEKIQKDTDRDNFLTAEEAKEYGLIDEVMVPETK

Compound | IC50 [1] | IC50 at 72 h [2] | Minimal Inhibitory Concentration S. aureus USA 300 ΔClpP [3] | MIC [4, 9] | EC50 [5] | IC50 at 72 h [2, 10] | IC50 [1, 11] | IC50 at 72 h ([2]; Vero cells, 72 hours, read-out: Cytotoxicity IC50) | MIC [6] | MIC [7] | MIC [4, 12] | EC50 [5, 13] | MIC [8]
C[C@@H]1CC2C(=O)O[C@@H](C)[C@H](NC(=O)[C@H](Cc3cc(F)cc(F)c3)NC(=O)Nc3ccc(OC(F)(F)F)cc3)C(=O)N3CCCC3C(=O)N3CCCCC3C(=O)N[C@@H](C)C(=O)N2C1 (stereo partly drawn) [Compound 40, (S)-3-(3,5-Difluorophenyl)-2-(3-(4-(Trifluoromethoxy)Phenyl)Ureido)-N-((2R,6S,8aS,14aS,20S,21S,23aS)-2,6,21-Trimethyl-5,8,14,19,23-Pentaoxooctadecahydro-1H,5H,14H,19H-Pyrido [2,1-I]Dipyrrolo[2,1-C:2′,1′-L][1]Oxa[4,7,10,13]Tetraazacyclohexadecin-20-Yl)Propanamide] | 12.7 ± 0.7 µM | 43.8 ± 5.1 µM | 25 µM | 0.1 µM (≈ 0.0878 µg/mL) | 0.36 ± 0.03 µM |  |  |  |  |  |  |  | 
C[C@H]1CC2C(=O)OC[C@H](NC(=O)[C@H](Cc3ccccc3)NC(=O)Nc3ccc(OC(F)(F)F)cc3)C(=O)N3CCCC3C(=O)N3CCCCC3C(=O)N[C@@H](C)C(=O)N2C1 (stereo partly drawn) [Compound 44, (S)—N-((2S,6S,8aS,14aS,20S,23aS)-2,6-Dimethyl-5,8,14,19,23-Pentaoxooctadecahydro-1H,5H,14H,19H-Pyrido[2,1-I]Dipyrrolo[2,1-C:2′,1′-L][1]Oxa[4,7,10,13]Tetraazacyclohexadecin-20-Yl)-3-Phenyl-2-(3-(4-(Trifluoromethoxy)Phenyl)Ureido)Propanamide] | 6.76 ± 0.3 µM |  | 50 µM | 0.1 µM (≈ 0.0828 µg/mL) | 0.28 ± 0.01 µM | 83.8 ± 6.6 µM |  |  |  |  |  |  | 
Cc1ccc(NC(=O)N[C@@H](Cc2cc(F)cc(F)c2)C(=O)N[C@H]2COC(=O)C3C[C@H](C)CN3C(=O)[C@H](C)NC(=O)C3CCCCN3C(=O)C3CCCN3C2=O)cc1 (stereo partly drawn) [Compound 45, (S)-3-(3,5-Difluorophenyl)-N-((2S,6S,8aS,14aS,20S,23aS)-2,6-Dimethyl-5,8,14,19,23-Pentaoxooctadecahydro-1H,5H,14H,19H-Pyrido[2,1-I]Dipyrrolo[2,1-C:2′,1′-L][1]Oxa[4,7,10,13]Tetraazacyclohexadecin-20-Yl)-2-(3-(P-Tolyl)Ureido)Propanamide] |  |  | 100 µM |  |  |  | 6.62 ± 0.2 µM | 56.8 ± 6.7 µM | 0.4 µM (≈ 0.318 µg/mL) | 0.4 µM (≈ 0.318 µg/mL) | 0.1 µM (≈ 0.0794 µg/mL) | 0.54 ± 0.03 µM | 
C[C@H]1CC2C(=O)OC[C@H](NC(=O)[C@H](Cc3cc(F)cc(F)c3)NC(=O)Nc3ccc4c(c3)OCO4)C(=O)N3CCCC3C(=O)N3CCCCC3C(=O)N[C@@H](C)C(=O)N2C1 (stereo partly drawn) [Compound 46, (S)-2-(3-(Benzo[D][1,3]Dioxol-5-Yl)Ureido)-3-(3,5-Difluorophenyl)-N-((2S,6S,8aS,14aS,20S,23aS)-2,6-Dimethyl-5,8,14,19,23-Pentaoxooctadecahydro-1H,5H,14H,19H-Pyrido[2,1-I]Dipyrrolo[2,1-C:2′,1′-L][1]Oxa[4,7,10,13]Tetraazacyclohexadecin-20-Yl)Propanamide] | 4.61 ± 0.2 µM |  | 200 µM | 0.4 µM (≈ 0.33 µg/mL) | 0.32 ± 0.02 µM | 71.8 ± 5.4 µM |  |  |  |  |  |  | 
Cc1ccc(NC(=O)N[C@@H](Cc2cc(F)cc(F)c2)C(=O)N[C@@H]2C(=O)N3CCCC3C(=O)N3CCOCC3C(=O)N[C@@H](C)C(=O)N3C[C@H](C)CC3C(=O)O[C@H]2C)cc1 (stereo partly drawn) [Compound 47, (S)-3-(3,5-Difluorophenyl)-2-(3-(P-Tolyl)Ureido)-N-((6aS,12S,13S,15aS,17R,21S,23aS)-13,17,21-Trimethyl-6,11,15,20,23-Pentaoxooctadecahydro-6H,11H,15H-[1,4]Oxazino[3,4-I]Dipyrrolo[2,1-C:2′,1′-L][1]Oxa[4,7,10,13]Tetraazacyclohexadecin-12-Yl)Propanamide] |  |  | >200 µM |  |  |  | 7.01 ± 0.3 µM |  | 0.003 µM (≈ 0.00243 µg/mL) | 0.02 µM (≈ 0.0162 µg/mL) | 0.002 µM (≈ 0.00162 µg/mL) | 0.4 ± 0.01 µM | 0.8 µM (≈ 0.648 µg/mL)

From patent US9879050B2, “Substituted urea depsipeptide analogs as activators of the CLPP endopeptidase” (priority 2013, dated 2018)
